Earlier results on 1 compound are cited in article PMC9042886 (RSC Advances, 2021).

The structures appear in SMILES notation.

One may read the IC50 as the concentration that gives 50% inhibition.

For one data set, the system named is HDAC6. The conditions noted are these: read-out: IC50 for HDAC6.
Another data set concerns HDAC8. The following applies: read-out: IC50 for HDAC8.

Regarding `Oc1ccc[nH]c1=S` [3-HPT, 3-hydroxypyridin-2-thione], the half-maximal inhibitory concentration (IC50) was 306 ± 69 nM with HDAC6 and 3100 ± 1650 nM with HDAC8.
